Measurements taken from patent US20240158446A1, “CYCLIC COMPOUND HAVING SELECTIVE INHIBITORY ACTION ON KRAS OVER HRAS AND NRAS” (CHUGAI SEIYAKU KABUSHIKI KAISHA, priority 2021, published 2024).

How the values were obtained:
[1] = target: GDP-bound NRAS wild-type protein (Homo sapiens, UniProt P01111); test: Binding to NRAS by surface plasmon resonance (SPR), Single Cycle Kinetics; settings: for NRAS/KRAS (ratio of KD value with respect to GDP-bound NRAS wild-type protein to KD value with respect to KRAS): SPR KD ratio NRAS/KRAS, class symbols; for NRAS/KRAS (ratio of KD value for NRAS to KD value for KRAS): SPR, GDP-bound NRAS wild-type protein vs GDP-bound KRAS wild-type protein
GDP-bound NRAS wild-type protein, sequence (P01111 whole entry): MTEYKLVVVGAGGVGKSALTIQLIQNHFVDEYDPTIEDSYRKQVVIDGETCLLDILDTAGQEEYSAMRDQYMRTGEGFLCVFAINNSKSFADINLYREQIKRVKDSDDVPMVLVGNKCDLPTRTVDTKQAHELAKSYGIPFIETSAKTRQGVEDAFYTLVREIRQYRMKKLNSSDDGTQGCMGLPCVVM

[2] = target: GDP-bound HRAS wild-type protein (Homo sapiens, UniProt P01112); test: Binding to HRAS by surface plasmon resonance (SPR), Single Cycle Kinetics; settings: for HRAS/KRAS (ratio of KD value with respect to GDP-bound HRAS wild-type protein to KD value with respect to KRAS): SPR KD ratio HRAS/KRAS, class symbols; for HRAS/KRAS (ratio of KD value for HRAS to KD value for KRAS): SPR, GDP-bound HRAS wild-type protein vs GDP-bound KRAS wild-type protein
GDP-bound HRAS wild-type protein, sequence (P01112 whole entry): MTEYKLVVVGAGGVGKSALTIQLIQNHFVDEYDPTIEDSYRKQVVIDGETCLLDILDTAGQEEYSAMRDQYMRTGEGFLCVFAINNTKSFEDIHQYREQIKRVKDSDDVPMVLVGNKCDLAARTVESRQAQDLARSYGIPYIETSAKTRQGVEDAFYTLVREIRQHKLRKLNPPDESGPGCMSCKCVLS

| SMILES | NRAS/KRAS (ratio of KD value with respect to GDP-bound NRAS wild-type protein to KD value with respect to KRAS) [1] | HRAS/KRAS (ratio of KD value with respect to GDP-bound HRAS wild-type protein to KD value with respect to KRAS) [2] | NRAS/KRAS (ratio of KD value for NRAS to KD value for KRAS) [1] | HRAS/KRAS (ratio of KD value for HRAS to KD value for KRAS) [2] | also measured |
| --- | --- | --- | --- | --- | --- |
| CCC[C@H]1C(=O)N[C@@H]([C@@H](C)CC)C(=O)N(C)CC(=O)N(C)[C@H]2C/C=C\CCN(C2=O)[C@@H](Cc2ccc(C(F)(F)F)cc2)C(=O)N(C)CC(=O)N[C@@H](CCc2cc(F)c(Cl)c(OC)c2)C(=O)N2C[C@H](OCC)C[C@H]2C(=O)NC2(CC(C)(C)C2)C(=O)N(C)[C@@H](C2CCCC2)C(=O)N(C)[C@H](C(=O)N(C)C)CC(=O)N1C [PP2864] | A (a compound having 10 or more and less than 20 is denoted as A) | A (a compound having 10 or more and less than 20 is denoted as A) | – | – | – |
| CCCOC[C@H]1C(=O)N[C@@H]([C@@H](C)CC)C(=O)N(C)CC(=O)N(C)[C@H]2C/C=C\CCN(C2=O)[C@@H](Cc2ccc(C)cc2)C(=O)N(C)CC(=O)N[C@@H](CCc2cc(F)c(C(F)(F)F)c(F)c2)C(=O)N2C[C@H](C)C[C@H]2C(=O)NC2(CCCC2)C(=O)N(C)[C@@H](C2CCCC2)C(=O)N(C)[C@H](C(=O)N(C)C)CC(=O)N1C [PP2225] | – | – | A (a compound having 10 or more and less than 20 is denoted as A) | A (a compound having 10 or more and less than 20 is denoted as A) | – |
| CC[C@H](C)[C@@H]1NC(=O)[C@H](CC(C)C)N(C)C(=O)C[C@@H](C(=O)N(C)C)N(C)C(=O)[C@H](C2CCCC2)N(C)C(=O)C2(CCCC2)NC(=O)[C@@H]2C[C@@H](C)CN2C(=O)[C@H](CCc2cc(F)c(C(F)(F)F)c(F)c2)NC(=O)CN(C)C(=O)[C@H](Cc2ccc(C)cc2)N2CC/C=C\C[C@@H](C2=O)N(C)C(=O)CN(C)C1=O [PP2189] | – | – | A (a compound having 10 or more and less than 20 is denoted as A) | A (a compound having 10 or more and less than 20 is denoted as A) | – |
| CCC[C@H]1C(=O)N[C@@H]([C@@H](C)CC)C(=O)N(C2CC2)CC(=O)N(C)[C@H]2C/C=C\CCN(C2=O)[C@@H](Cc2ccc(C)cc2)C(=O)N(C)CC(=O)N[C@@H](CCc2ccc(C(F)(F)F)c(C3CC3)c2)C(=O)N2C[C@H](OCC)C[C@H]2C(=O)NC2(CC(C)(C)C2)C(=O)N(C)[C@@H](C2CCCC2)C(=O)N(C)[C@H](C(=O)N(C)C)CC(=O)N1C [PP2881] | A (a compound having 10 or more and less than 20 is denoted as A) | A (a compound having 10 or more and less than 20 is denoted as A) | – | – | – |
| CCC[C@H]1C(=O)N[C@@H]([C@@H](C)CC)C(=O)N(C2CC2)CC(=O)N(C)[C@H]2C/C=C\CCN(C2=O)[C@@H](Cc2ccc(C)cc2)C(=O)N(C)CC(=O)N[C@@H](CCc2cc(F)c(Cl)c(OC)c2)C(=O)N2C[C@H](OCC)C[C@H]2C(=O)NC2(CC(C)(C)C2)C(=O)N(C)[C@@H](C2CCCC2)C(=O)N(C)[C@H](C(=O)N(C)C)CC(=O)N1C [PP2871] | A (a compound having 10 or more and less than 20 is denoted as A) | A (a compound having 10 or more and less than 20 is denoted as A) | – | – | – |
| CCO[C@@H]1C[C@H]2C(=O)NC3(CC(C)(C)C3)C(=O)N(C)[C@@H](C(CC)CC)C(=O)N(C)[C@H](C(=O)N(C)C)CC(=O)N(C)[C@@H](CC(C)C)C(=O)N[C@@H]([C@@H](C)CC)C(=O)N(C)CC(=O)N(C)[C@H]3C/C=C\CCN(C3=O)[C@@H](Cc3ccc(C)cc3)C(=O)N(C)CC(=O)N[C@@H](CCc3cc(F)c(C(F)(F)F)c(F)c3)C(=O)N2C1 [PP2141] | – | – | A (a compound having 10 or more and less than 20 is denoted as A) | A (a compound having 10 or more and less than 20 is denoted as A) | – |
| CCO[C@@H]1C[C@H]2C(=O)NC3(CCC3)C(=O)N(C)[C@@H](C3CCCC3)C(=O)N(C)[C@H](C(=O)N(C)C)CC(=O)N(C)[C@@H](CC)C(=O)N[C@@H]([C@@H](C)CC)C(=O)N(C)CC(=O)N(C)[C@H]3CC(C)=C(C)CN(C3=O)[C@@H](Cc3ccc(C(F)(F)F)cc3)C(=O)N(C)CC(=O)N[C@@H](CCc3cc(F)c(C(F)(F)F)c(F)c3)C(=O)N2C1 [PP1048] | – | – | C (A compound having a KD ratio of 0.1 or more and less than 3 is denoted as C) | C (A compound having a KD ratio of 0.1 or more and less than 3 is denoted as C) | – |
| CC[C@H](C)[C@@H]1NC(=O)[C@H](CC2CC2)N(C)C(=O)C[C@@H](C(=O)N2CCCC2)N(C)C(=O)[C@H](C2CCCC2)N(C)C(=O)C2(CCCC2)NC(=O)[C@@H]2C[C@@H](C(F)(F)F)CN2C(=O)[C@H](CCc2cc(F)c(C(F)(F)F)c(F)c2)NC(=O)CN(C)C(=O)[C@H](Cc2ccc(F)cc2)N2CC/C=C\C[C@@H](C2=O)N(C)C(=O)CN(C)C1=O [PP1509] | – | – | – | – | NRAS/KRAS (ratio of KD value for NRAS to KD value for KRAS) ([1]; KD ratio class): A (a compound having 10 or more and less than 20 is denoted as A); HRAS/KRAS (ratio of KD value for HRAS to KD value for KRAS) ([2]; KD ratio class): A (a compound having 10 or more and less than 20 is denoted as A) |
